Test results taken from ChEMBL document CHEMBL4414672, “Synthesis of certain benzothieno[3,2-d]pyrimidine derivatives as a selective SIRT2 inhibitors” (Eur J Med Chem, 2020).

Assays:
Assay type in all cases: functional
HOP-62 = test: Growth inhibition of human HOP62 cells at 10^-5 M incubated for 48 hrs by sulforhodamine B assay; conditions: HOP-62, 48 h, read-out: GI
SF-268 = test: Growth inhibition of human SF268 cells at 10^-5 M incubated for 48 hrs by sulforhodamine B assay; conditions: SF-268, 48 h, read-out: GI
SK-MEL-28 = test: Growth inhibition of human SK-MEL-28 cells at 10^-5 M incubated for 48 hrs by sulforhodamine B assay; conditions: SK-MEL-28, 48 h, read-out: GI
SW-620 = test: Growth inhibition of human SW620 cells at 10^-5 M incubated for 48 hrs by sulforhodamine B assay; conditions: SW-620, 48 h, read-out: GI
PC-3 = test: Growth inhibition of human PC3 cells at 10^-5 M incubated for 48 hrs by sulforhodamine B assay; conditions: PC-3, 48 h, read-out: GI
SK-MEL-5 = test: Growth inhibition of human SK-MEL-5 cells at 10^-5 M incubated for 48 hrs by sulforhodamine B assay; conditions: SK-MEL-5, 48 h, read-out: GI
NCI-H23 = test: Growth inhibition of human NCI-H23 cells at 10^-5 M incubated for 48 hrs by sulforhodamine B assay; conditions: NCI-H23, 48 h, read-out: GI
SF-539 = test: Growth inhibition of human SF539 cells at 10^-5 M incubated for 48 hrs by sulforhodamine B assay; conditions: SF-539, 48 h, read-out: GI
OVCAR-8 = test: Growth inhibition of human OVCAR8 cells at 10^-5 M incubated for 48 hrs by sulforhodamine B assay; conditions: OVCAR-8, 48 h, read-out: GI
BT-549 = test: Growth inhibition of human BT549 cells at 10^-5 M incubated for 48 hrs by sulforhodamine B assay; conditions: BT-549, 48 h, read-out: GI
UO-31 = test: Growth inhibition of human UO31 cells at 10^-5 M incubated for 48 hrs by sulforhodamine B assay; conditions: UO-31, 48 h, read-out: GI
UACC-62 = test: Growth inhibition of human UACC62 cells at 10^-5 M incubated for 48 hrs by sulforhodamine B assay; conditions: UACC-62, 48 h, read-out: GI
TK-10 = test: Growth inhibition of human TK10 cells at 10^-5 M incubated for 48 hrs by sulforhodamine B assay; conditions: TK-10, 48 h, read-out: GI
A498 = test: Growth inhibition of human A498 cells at 10^-5 M incubated for 48 hrs by sulforhodamine B assay; conditions: A498, 48 h, read-out: GI
ACHN = test: Growth inhibition of human ACHN cells at 10^-5 M incubated for 48 hrs by sulforhodamine B assay; conditions: read-out: GI
Hs-578T = test: Growth inhibition of human Hs 578T cells at 10^-5 M incubated for 48 hrs by sulforhodamine B assay; conditions: read-out: GI
786-0 = test: Growth inhibition of human 786-0 cells at 10^-5 M incubated for 48 hrs by sulforhodamine B assay; conditions: 786-0, 48 h, read-out: GI
MDA-MB-231 = test: Growth inhibition of human MDA-MB-231 cells at 10^-5 M incubated for 48 hrs by sulforhodamine B assay; conditions: MDA-MB-231, 48 h, read-out: GI
SNB-19 = test: Growth inhibition of human SNB19 cells at 10^-5 M incubated for 48 hrs by sulforhodamine B assay; conditions: SNB-19, 48 h, read-out: GI
M14 = test: Growth inhibition of human M14 cells at 10^-5 M incubated for 48 hrs by sulforhodamine B assay; conditions: M14, 48 h, read-out: GI
NCI-H322M = test: Growth inhibition of human NCI-H322M cells at 10^-5 M incubated for 48 hrs by sulforhodamine B assay; conditions: read-out: GI
RXF 393 = test: Growth inhibition of human RXF393 cells at 10^-5 M incubated for 48 hrs by sulforhodamine B assay; conditions: RXF 393, 48 h, read-out: GI
MDA-MB-468 = test: Growth inhibition of human MDA-MB-468 cells at 10^-5 M incubated for 48 hrs by sulforhodamine B assay; conditions: MDA-MB-468, 48 h, read-out: GI
NCI-H226 = test: Growth inhibition of human NCI-H226 cells at 10^-5 M incubated for 48 hrs by sulforhodamine B assay; conditions: NCI-H226, 48 h, read-out: GI
IGROV-1 = test: Growth inhibition of human IGROV1 cells at 10^-5 M incubated for 48 hrs by sulforhodamine B assay; conditions: IGROV-1, 48 h, read-out: GI
K562 = test: Growth inhibition of human K562 cells at 10^-5 M incubated for 48 hrs by sulforhodamine B assay; conditions: K562, 48 h, read-out: GI
CAKI-1 = test: Growth inhibition of human Caki1 cells at 10^-5 M incubated for 48 hrs by sulforhodamine B assay; conditions: CAKI-1, 48 h, read-out: GI
MOLT-4 = test: Growth inhibition of human MOLT4 cells at 10^-5 M incubated for 48 hrs by sulforhodamine B assay; conditions: MOLT-4, 48 h, read-out: GI
NCI-H460 = test: Growth inhibition of human NCI-H460 cells at 10^-5 M incubated for 48 hrs by sulforhodamine B assay; conditions: NCI-H460, 48 h, read-out: GI
SF-295 = test: Growth inhibition of human SF295 cells at 10^-5 M incubated for 48 hrs by sulforhodamine B assay; conditions: SF-295, 48 h, read-out: GI
HL-60(TB) = test: Growth inhibition of human HL-60(TB) cells at 10^-5 M incubated for 48 hrs by sulforhodamine B assay; conditions: HL-60, 48 h, read-out: GI
HCT-15 = test: Growth inhibition of human HCT15 cells at 10^-5 M incubated for 48 hrs by sulforhodamine B assay; conditions: HCT-15, 48 h, read-out: GI
SK-OV-3 = test: Growth inhibition of human SKOV3 cells at 10^-5 M incubated for 48 hrs by sulforhodamine B assay; conditions: SK-OV-3, 48 h, read-out: GI
SR = test: Growth inhibition of human SR cells at 10^-5 M incubated for 48 hrs by sulforhodamine B assay; conditions: read-out: GI
T47D = test: Growth inhibition of human T47D cells at 10^-5 M incubated for 48 hrs by sulforhodamine B assay; conditions: read-out: GI
SK-MEL-2 = test: Growth inhibition of human SK-MEL-2 cells at 10^-5 M incubated for 48 hrs by sulforhodamine B assay; conditions: SK-MEL-2, 48 h, read-out: GI
Malme-3M = test: Growth inhibition of human MALME-3M cells at 10^-5 M incubated for 48 hrs by sulforhodamine B assay; conditions: read-out: GI
COLO 205 = test: Growth inhibition of human COLO205 cells at 10^-5 M incubated for 48 hrs by sulforhodamine B assay; conditions: COLO 205, 48 h, read-out: GI

NC(=O)CSC1=Nc2c(sc3ccc(Cl)cc23)C(c2cccc([N+](=O)[O-])c2)N1 (stereo unspecified)
inhibition of growth at 10 µM (HOP-62): 6.5% | inhibition of growth at 10 µM (SF-268): -4.2% | inhibition of growth at 10 µM (SK-MEL-28): -21.2% | inhibition of growth at 10 µM (SW-620): -4.82% | inhibition of growth at 10 µM (PC-3): 7.5% | inhibition of growth at 10 µM (SK-MEL-5): 4.8% | inhibition of growth at 10 µM (NCI-H23): 4.2% | inhibition of growth at 10 µM (SF-539): 0.81% | inhibition of growth at 10 µM (OVCAR-8): -3.56% | inhibition of growth at 10 µM (BT-549): -8.76% | inhibition of growth at 10 µM (UO-31): 34.3% | inhibition of growth at 10 µM (UACC-62): 6.2% | inhibition of growth at 10 µM (TK-10): -16.6% | inhibition of growth at 10 µM (A498): 20.2% | inhibition of growth at 10 µM (ACHN): 8.24% | inhibition of growth at 10 µM (Hs-578T): 1.5% | inhibition of growth at 10 µM (786-0): -0.38% | inhibition of growth at 10 µM (MDA-MB-231): 7.36% | inhibition of growth at 10 µM (SNB-19): -7.64% | inhibition of growth at 10 µM (M14): -2.31% | inhibition of growth at 10 µM (NCI-H322M): 3.97% | inhibition of growth at 10 µM (RXF 393): -12.1% | inhibition of growth at 10 µM (MDA-MB-468): 2.9% | inhibition of growth at 10 µM (NCI-H226): 10.4% | inhibition of growth at 10 µM (IGROV-1): 22% | inhibition of growth at 10 µM (K562): 2.53% | inhibition of growth at 10 µM (CAKI-1): 19.2% | inhibition of growth at 10 µM (MOLT-4): 3.86% | inhibition of growth at 10 µM (NCI-H460): 19.3% | inhibition of growth at 10 µM (SF-295): -2.8% | inhibition of growth at 10 µM (HL-60(TB)): -2.94% | inhibition of growth at 10 µM (HCT-15): -3.38% | inhibition of growth at 10 µM (SK-OV-3): 4.62% | inhibition of growth at 10 µM (SR): 4.41% | inhibition of growth at 10 µM (T47D): 23.9% | inhibition of growth at 10 µM (SK-MEL-2): -13% | inhibition of growth at 10 µM (Malme-3M): 3.6% | inhibition of growth at 10 µM (COLO 205): -5.21%

O=C1/C(=C\c2cccc([N+](=O)[O-])c2)Sc2ccc(Cl)cc21
inhibition of growth at 10 µM (HOP-62): -0.47% | inhibition of growth at 10 µM (SF-268): 7.22% | inhibition of growth at 10 µM (SK-MEL-28): -11.7% | inhibition of growth at 10 µM (SW-620): 2.49% | inhibition of growth at 10 µM (PC-3): -3.94% | inhibition of growth at 10 µM (SK-MEL-5): 8.13% | inhibition of growth at 10 µM (NCI-H23): 16.7% | inhibition of growth at 10 µM (SF-539): -3.16% | inhibition of growth at 10 µM (OVCAR-8): 0.87% | inhibition of growth at 10 µM (BT-549): 20.8% | inhibition of growth at 10 µM (UO-31): 11.3% | inhibition of growth at 10 µM (UACC-62): 29.5% | inhibition of growth at 10 µM (TK-10): -12.1% | inhibition of growth at 10 µM (A498): 11.5% | inhibition of growth at 10 µM (ACHN): 27% | inhibition of growth at 10 µM (Hs-578T): -8.12% | inhibition of growth at 10 µM (786-0): -1.44% | inhibition of growth at 10 µM (MDA-MB-231): 9.23% | inhibition of growth at 10 µM (SNB-19): -6.12% | inhibition of growth at 10 µM (M14): 4.61% | inhibition of growth at 10 µM (NCI-H322M): 4.18% | inhibition of growth at 10 µM (RXF 393): 15.7% | inhibition of growth at 10 µM (MDA-MB-468): 13.1% | inhibition of growth at 10 µM (NCI-H226): 5.97% | inhibition of growth at 10 µM (IGROV-1): 19.9% | inhibition of growth at 10 µM (K562): 10.5% | inhibition of growth at 10 µM (CAKI-1): -4.55% | inhibition of growth at 10 µM (MOLT-4): 2.66% | inhibition of growth at 10 µM (NCI-H460): -5.14% | inhibition of growth at 10 µM (SF-295): -3.16% | inhibition of growth at 10 µM (HL-60(TB)): -10.8% | inhibition of growth at 10 µM (HCT-15): 6.13% | inhibition of growth at 10 µM (SK-OV-3): 5.38% | inhibition of growth at 10 µM (SR): 54.8% | inhibition of growth at 10 µM (T47D): 13.1% | inhibition of growth at 10 µM (SK-MEL-2): 12.4% | inhibition of growth at 10 µM (Malme-3M): 22.4% | inhibition of growth at 10 µM (COLO 205): -6.01%
